In patent publication US7638537B2, “Pyrazole compounds as transforming growth factor (TGF) inhibitors” (Pfizer Inc., priority 2002, dated 2009) one finds IC50 data, which are given here for 1 compound.

The structures appear in SMILES notation.

For this test, the target named is T1, ALK-5 (TβRI) (Homo sapiens, UniProt P36897).
T1 construct: using either the kinase domain of ALK5 with Smad3 as substrate; GST
T1 sequence (P36897 205-495 limits assumed): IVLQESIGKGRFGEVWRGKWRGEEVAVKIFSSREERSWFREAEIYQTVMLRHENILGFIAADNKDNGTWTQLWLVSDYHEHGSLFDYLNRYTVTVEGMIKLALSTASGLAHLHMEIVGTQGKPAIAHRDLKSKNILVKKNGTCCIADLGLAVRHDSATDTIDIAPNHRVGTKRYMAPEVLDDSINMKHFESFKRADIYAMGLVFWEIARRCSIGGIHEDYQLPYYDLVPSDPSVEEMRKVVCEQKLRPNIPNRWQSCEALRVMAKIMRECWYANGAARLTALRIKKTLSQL
Kind of test: ALK-5 (TβRI) Kinase Assay. Format: biochemical. The method, then: The kinase assays were performed with 65 nM GST-ALK5 and 84 nM GST-Smad3 in 50 mM HEPES, 5 mM MgCl2, 1 mM CaCl2, 1 mM dithiothreitol, and 3_M ATP. Reactions were incubated with 0.5_Ci of [33 P]_ATP for 3 h at 30° C. Phosphorylated protein was captured on P-81 paper (Whatman, Maidstone, England), washed with 0.5% phosphoric acid, and counted by liquid scintillation. Alternatively, Smad3 or Smad1 protein was also coated onto FlashPlate Sterile Basic Microplates (PerkinElmer Life Sciences, Boston, Mass.). Kinase assays were then performed in Flash-Plates with same assay conditions using either the kinase domain of ALK5 with Smad3 as substrate or the kinase domain of ALK6 (BMP receptor) with Smad1 as substrate. Plates were washed three times with phosphate buffer and counted by TopCount (Packard Bio-science, Meriden, Conn.). (Laping, N. J. et al. Molecular Pharmacology 62:58-64 (2002)).

Turning to `c1ccc(-c2n[nH]cc2-c2ccc3c(c2)OCO3)nc1` [Example 7, 2-(4-Benzo[1,3]dioxol-5-yl-1H-pyrazol-3-yl)-pyridine], the IC50 (usually the concentration needed to halve the response being measured) is approximately 51 nM.
